The source of these data is patent US9545387B2, “Composition and kit comprising piperazine derivatives and metformin, and use thereof in the treatment of diabetes” (METABOLYS, priority 2012, dated 2017).

Each structure is given as a SMILES string.

The nature of assay [1]: oral glucose tolerance test (OGTT) in normal Swiss mice fasting for 17 hours, additive effect with metformin. The format is in vivo. The note with it: compound 1 50 mg/kg per os, metformin 300 mg/kg per os; for Glycaemia, Time 0 mn / Glycaemia, Time 90 mn: Table 1, OGTT; for Glycaemia, Time 0 mn: time 0 min; for Glycaemia, Time 90 mn: time 90 min; for drop of glycaemia area under curve after glucose load: study 1. Here is the method: The anti-diabetic action of the compounds in Examples 1 and 2 were determined via oral route in normal Swiss mice fasting for 17 hours. […] The animals were housed for a minimum time of one week after delivery (ordered from Charles River France) up until the day of experimentation in an animal facility at a temperature regulated at 21-22° C. and subjected to a light cycle (from 9 h to 17 h) and dark cycle (from 19 h to 7 h). They were fed a maintenance diet: water and food were provided ? ad libitum ? . The animals were treated via oral route 1 hour before oral administration of a glucose load (oral glucose tolerance test—OGTT). Glycaemia was measured at various times before and after this glucose load. This glycaemia was measured using a glucometer (Lifescan OneTouch Ultra, Lifescan, Johnson and Johnson Company) and OneTouch Ultra glycaemia test strips. In the Tables below n represents the number of mice included in the study. • 1. […] The 2 compounds were administered successively one hour before the glucose load. All the groups were composed of 5 mice (metformin alone, compound 1 alone, metformin+compound 1, control group with the carrier alone). Blood samples were taken at 0, 30, 60, 90 and 120 minutes after the glucose load.

Assay in assay [2]: as above
Format: in vivo. The note with it: metformin 300 mg/kg per os; for Glycaemia, Time −60 mn / Glycaemia, Time 30 mn / Glycaemia, Time 60 mn / Glycaemia, Time 120 mn / Glycaemia, Time 0 mn / Glycaemia, Time 90 mn: OGTT; for Glycaemia, Time −60 mn: given 1 h before glucose load, time −60 min; for Glycaemia, Time 30 mn: time 30 min; for Glycaemia, Time 60 mn: time 60 min; for Glycaemia, Time 120 mn: time 120 min; for Glycaemia, Time 0 mn: time 0 min; for Glycaemia, Time 90 mn: time 90 min.

In assay [3] the test system is liver cells of rats fasting for 48 h. As to conditions: rat liver cells; stated in words, no data shown; cited from earlier work.
Setting [4] is: Table 1, compound 1 50 mg/kg per os.
Where [5] appears, read: Table 2, compound 2 50 mg/kg per os.
Setting [6] is: Table 3, compound 3 50 mg/kg per os.
[7] abbreviates: Table 4, compound 4 50 mg/kg per os.

Consider `O=C(O)CCC(=O)c1ccc(OCCN2CCN(c3ccccc3F)CC2)cc1` [Compound 1], for which, in assay [1], the “Glycaemia, Time 0 mn” value was 4.5 ± 0.3 mM/liter; the “Glycaemia, Time 90 mn” value is 6.5 ± 0.5 mM/liter; the “drop of glycaemia area under curve after glucose load” value (“drop of glycaemia area under curve” for short) came out at 42.5%. Also, in assay [2] (setting [4]), the “Glycaemia, Time −60 mn” value is 5.0 ± 0.2 mM/liter; the “Glycaemia, Time 30 mn” value is recorded as 15.2 ± 1.9 mM/liter; the “Glycaemia, Time 60 mn” value came out at 10.6 ± 0.2 mM/liter; the “Glycaemia, Time 120 mn” value was found to be 5.3 ± 0.2 mM/liter.
Consider `CN(C)C(=N)N=C(N)N` [Metformin, metformin], for which, in assay [1], the “Glycaemia, Time 0 mn” value was determined as 3.2 ± 0.3 mM/liter; the “Glycaemia, Time 90 mn” value came out at 7.7 ± 1.0 mM/liter; the “drop of glycaemia area under curve” value was 44.2%. Besides, in assay [2] (setting [4]), the “Glycaemia, Time −60 mn” value was 3.7 ± 0.3 mM/liter; the “Glycaemia, Time 30 mn” value is 8.6 ± 0.5 mM/liter; the “Glycaemia, Time 60 mn” value came out at 9.4 ± 0.8 mM/liter; the “Glycaemia, Time 120 mn” value was determined as 6.2 ± 0.8 mM/liter. Further, in assay [2] (setting [5]), the “Glycaemia, Time −60 mn” value worked out at 3.8 ± 0.1 mM/liter; the “Glycaemia, Time 0 mn” value came out at 3.6 ± 0.3 mM/liter; the “Glycaemia, Time 30 mn” value was 11.2 ± 0.3 mM/liter; the “Glycaemia, Time 60 mn” value was 9.5 ± 0.4 mM/liter. In assay [2] (setting [5]), the “Glycaemia, Time 90 mn” value is reported as 8.0 ± 1.3 mM/liter and the “Glycaemia, Time 120 mn” value stood at 8.2 ± 0.7 mM/liter. Also, in assay [2] (setting [6]), the “Glycaemia, Time −60 mn” value was 5.6 ± 0.3 mM/liter; the “Glycaemia, Time 0 mn” value is 6.0 ± 0.3 mM/liter; the “Glycaemia, Time 30 mn” value was found to be 9.2 ± 0.8 mM/liter; the “Glycaemia, Time 60 mn” value was 8.2 ± 0.4 mM/liter. In assay [2] (setting [6]), the “Glycaemia, Time 90 mn” value worked out at 7.7 ± 0.2 mM/liter and the “Glycaemia, Time 120 mn” value turned out to be 9.6 ± 0.8 mM/liter. Besides, in assay [2] (setting [7]), the “Glycaemia, Time −60 mn” value turned out to be 4.2 ± 0.3 mM/liter; the “Glycaemia, Time 0 mn” value came to 3.6 ± 0.3 mM/liter; the “Glycaemia, Time 30 mn” value is listed as 9.5 ± 0.6 mM/liter; the “Glycaemia, Time 60 mn” value is reported as 11.2 ± 1.8 mM/liter. Besides, in assay [2] (setting [7]), the “Glycaemia, Time 90 mn” value was 9.6 ± 0.9 mM/liter and the “Glycaemia, Time 120 mn” value was found to be 8.6 ± 0.7 mM/liter. For the same compound, the “drop of glycaemia area under curve” value in assay [2] (study 2, compound 2 50 mg/kg per os) is 38.7%. In addition, in assay [2] (study 3, compound 3 50 mg/kg per os), the “drop of glycaemia area under curve” value is on record as 68.5%. The “drop of glycaemia area under curve” value in assay [2] (study 4, compound 4 50 mg/kg per os) is given as 54.3%. In addition, in assay [3], the “effect on the production of 13CO2 from 2-13C-lactate” value is listed as “reduces” and the “effect on the synthesis of glucose” value is reported as “reduces”.
